molecular target: SUV420H1 enzyme (Homo sapiens, UniProt Q4FZB7); test: TR-FRET SAH SUV420H1 enzyme inhibition assay; type: biochemical; settings: Histone Peptide H4(8-30)me1 and SAM, overnight at room temp, TR-FRET detection of SAH, read-out: TR-FRET SAH_SUV420H1 IC50
Procedure: Test compounds were dispensed by a Labcyte Echo in 384-well low volume assay plates with 3-fold serial dilutions from 50 μM to 0.00075 μM. 5 μL of SUV420H1 enzyme (Abbvie) at 90 nM was added to all wells except the no enzyme control wells, and incubated for 30 minutes at room temp before 5 μL of Histone Peptide H4(8-30)me1 (Anaspec) at 5 nM and SAM at 4 nM was added to all wells. The plates were incubated in a humidified chamber overnight at room temp and then 10 μL of the detection reagent that contained RIPA buffer (50 mM Tris-HCl, pH 8.0, 150 mM sodium chloride, 1.0% Igepal CA-630 (NP-40), 0.5% sodium deoxycholate and 0.1% sodium dodecyl sulfate) (Sigma) with 2 nM of Terbium chelate anti S-adenosyl-L-homocysteine (SAH) (Abbvie) antibody and Oregon Green labeled SAH at 4 nM was added. The plates were further incubated for 4 hours at room temperature. The plates were read in a Perkin Elmer Envision using a TR-FRET protocol with Excitation set at 335 nm and Emission at 520 and 495 nm. To generate dose response curves the data is normalized to percent inhibition by setting the average of the plus and minus enzyme control wells to 0% and 100% inhibition respectively. The IC50 values for the compounds are generated by fitting the normalized data with Accelrys Assay Explorer 3.3 to a sigmoidal curve model using […] regression, Y=(100*x^n)/(K^n+x^n), where Y is the measured response, x is the compound concentration, n is the Hill Slope and K is the IC50 and the lower and higher asymptotes are constrained to 0 and 100 respectively.

Sequence of SUV420H1 enzyme (Q4FZB7 whole entry): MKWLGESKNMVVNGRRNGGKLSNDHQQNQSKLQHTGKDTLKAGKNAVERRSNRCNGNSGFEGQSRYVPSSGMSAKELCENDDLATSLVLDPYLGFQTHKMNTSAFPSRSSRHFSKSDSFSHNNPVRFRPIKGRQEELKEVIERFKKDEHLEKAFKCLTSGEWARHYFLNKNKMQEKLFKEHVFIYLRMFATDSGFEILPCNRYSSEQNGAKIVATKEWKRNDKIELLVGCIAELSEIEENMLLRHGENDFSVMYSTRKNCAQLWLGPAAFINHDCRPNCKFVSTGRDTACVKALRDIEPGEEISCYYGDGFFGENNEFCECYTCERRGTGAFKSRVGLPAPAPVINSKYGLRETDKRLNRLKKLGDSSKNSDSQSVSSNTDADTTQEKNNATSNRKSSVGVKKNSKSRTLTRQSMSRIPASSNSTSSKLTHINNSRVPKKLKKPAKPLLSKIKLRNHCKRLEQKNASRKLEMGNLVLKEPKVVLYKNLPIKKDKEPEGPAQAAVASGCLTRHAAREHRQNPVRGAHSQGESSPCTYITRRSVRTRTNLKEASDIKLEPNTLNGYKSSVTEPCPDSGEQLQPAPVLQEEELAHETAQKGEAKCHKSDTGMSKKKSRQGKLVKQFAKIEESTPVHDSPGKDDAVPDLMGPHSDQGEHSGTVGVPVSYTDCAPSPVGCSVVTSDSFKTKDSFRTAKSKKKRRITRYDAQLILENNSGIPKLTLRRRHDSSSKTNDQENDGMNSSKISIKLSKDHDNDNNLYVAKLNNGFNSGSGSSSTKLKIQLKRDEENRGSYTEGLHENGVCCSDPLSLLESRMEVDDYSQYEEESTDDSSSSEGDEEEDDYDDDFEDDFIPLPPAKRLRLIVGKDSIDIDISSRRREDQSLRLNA

SMILES	IC50 [µM]
CNc1ccccc1C(=O)NCc1cc2cc(Cl)cc(Cn3cnc4c(N)ncnc43)c2[nH]1 [Example 275, N-({7-[(6-amino-9H-purin-9-yl)methyl]-5-chloro-1H-indol-2-yl}methyl)-2-(methylamino)benzamide]	13.2
CC(C)(C)OC(=O)CNCc1cc2cc(Cl)cc(Cn3cnc4c(N)ncnc43)c2[nH]1 [Example 106, tert-butyl [({7-[(6-amino-9H-purin-9-yl)methyl]-5-chloro-1H-indol-2-yl}methyl)amino]acetate]	3.32
CCCC(=O)NCc1cc2cc(Cl)cc(Cn3cnc4c(N)ncnc43)c2[nH]1 [Example 98, N-({7-[(6-amino-9H-purin-9-yl)methyl]-5-chloro-1H-indol-2-yl}methyl)butanamide]	11.8
CCc1nc2ccc(C(=O)NCc3cc4cc(Cl)cc(Cn5cnc6c(N)ncnc65)c4[nH]3)cc2[nH]1 [Example 368, N-({7-[(6-amino-9H-purin-9-yl)methyl]-5-chloro-1H-indol-2-yl}methyl)-2-ethyl-1H-benzimidazole-6-carboxamide]	7.61
NCc1cc2ccc(Cl)c(Cn3cnc4c(N)ncnc43)c2[nH]1 [Example 58, 9-{[2-(aminomethyl)-6-chloro-1H-indol-7-yl]methyl}-9H-purin-6-amine]	7.88
Cc1noc(C)c1C(=O)NCc1cc2cc(-c3cccc(C#N)c3)cc(Cn3cnc4c(N)ncnc43)c2[nH]1 [Example 172, N-({7-[(6-amino-9H-purin-9-yl)methyl]-5-(3-cyanophenyl)-H-indol-2-yl}methyl)-3,5-dimethyl-1,2-oxazole-4-carboxamide]	0.0661
COc1ccccc1CNC(=O)NCc1cc2cc(Cl)cc(Cn3cnc4c(N)ncnc43)c2[nH]1 [Example 312, 1-({7-[(6-amino-9H-purin-9-yl)methyl]-5-chloro-1H-indol-2-yl}methyl)-3-(2-methoxybenzyl)urea]	> 50
Nc1ncnc2c1ncn2Cc1cc(Cl)cc2cc(CNC(=O)CN3CCOCC3)[nH]c12 [Example 127, N-({7-[(6-amino-9H-purin-9-yl)methyl]-5-chloro-1H-indol-2-yl}methyl)-2-(morpholin-4-yl)acetamide]	6
CCNC(=O)c1cccc(-c2cc(Cn3cnc4c(N)ncnc43)c3[nH]c(CN)cc3c2)c1 [Example 46, 3-{2-(aminomethyl)-7-[(6-amino-9H-purin-9-yl)methyl]-1H-indol-5-yl}-N-ethylbenzamide]	0.541
NCc1cc2c(C3=CCCC3)ccc(Cn3cnc4c(N)ncnc43)c2[nH]1 [Example 67, 9-{[2-(aminomethyl)-4-(cyclopent-1-en-1-yl)-1H-indol-7-yl]methyl}-9H-purin-6-amine]	0.2
N#Cc1cccc(C(=O)NCc2cc3cc(Cl)cc(Cn4cnc5c(N)ncnc54)c3[nH]2)c1 [Example 273, N-({7-[(6-amino-9H-purin-9-yl)methyl]-5-chloro-1H-indol-2-yl}methyl)-3-cyanobenzamide]	1.5
N#Cc1cccc(-c2cc(Cn3cnc4c(N)ncnc43)c3[nH]c(CN)cc3c2)c1 [Example 39, 3-{2-(aminomethyl)-7-[(6-amino-9H-purin-9-yl)methyl]-1H-indol-5-yl}benzonitrile]	0.345
COc1c(C(=O)NCc2cc3cc(Cl)cc(Cn4cnc5c(N)ncnc54)c3[nH]2)cnc2c1c(C)nn2C [Example 373, N-({7-[(6-amino-9H-purin-9-yl)methyl]-5-chloro-1H-indol-2-yl}methyl)-4-methoxy-1,3-dimethyl-1H-pyrazolo[3,4-b]pyridine-5-carboxamide]	0.0844
Nc1ncnc2c1ncn2Cc1cc(Cl)cc2cc(CNC(=O)CC3CC3)[nH]c12 [Example 110, N-({7-[(6-amino-9H-purin-9-yl)methyl]-5-chloro-1H-indol-2-yl}methyl)-2-cyclopropylacetamide]	10.7
Cn1ncc2cc(C(=O)NCc3cc4cc(Cl)cc(Cn5cnc6c(N)ncnc65)c4[nH]3)ccc21 [Example 362, N-({7-[(6-amino-9H-purin-9-yl)methyl]-5-chloro-1H-indol-2-yl}methyl)-1-methyl-1H-indazole-5-carboxamide]	0.636

From US9932340B2, “Substituted indoles” (AbbVie Inc., priority 2014, dated 2018)
